Counter-ions that a name gives are not always drawn. Like-named read-outs stand apart in the source and are kept apart here. Each block holds one molecule with its values, some of them ahead of it.
How the values were obtained:
[1] = target: T1, dopaminergic D2 receptors (Rattus norvegicus, UniProt P61169); test: Affinity for the D2 receptors, displacement of [3H]YM-09151-2; type: binding; settings: rat striatum, [3H]YM-09151-2 displacement, mean of at least 3 experiments
T1 construct: For these experiments, rat striatum is used; from tissue; host or cells: rat striatum homogenate
Method: Measurement of the affinity of the compounds of the invention for the D2 receptors
For these experiments, rat striatum is used. After thawing the brain in Tris-HCl buffer (50 mmol, pH=7.4) at 25° C., the striatum is removed and homogenized in 40 volumes of buffer maintained at 4° C. The homogenate is centrifuged at 20 000×g for 10 minutes, and the centrifugation pellet is suspended in the same volume of buffer and recentrifuged. The final pellet is suspended in cold Tris-HCl reaction buffer at 25° C. containing 120 mmol of NaCl and 5 mmol of KCl. The final concentration of tissue in the incubation medium is 2 mg/tube. […] The nonspecific binding is defined by using […] of (+)-butaclamol. The reaction tubes are incubated at 23° C. for 60 minutes and their content is then rapidly filtered through Whatman GF/B filters, and the tubes are rinsed twice with 5 ml of Tris-HCl buffer at 25° C. The radioactivity collected on the filter is analyzed by liquid scintillation, by adding 4 ml of scintillant liquid (Emulsifier Safe, Packard). All the experiments are performed in triplicate.

[2] = target: T2, 5-HT1A receptors (Homo sapiens, UniProt P08908); test: Efficacy: stimulation of [35S]GTPγS binding in a cell membrane preparation; type: biochemical
T2 construct: Gibco Biocult; Laboratory, Paisley UK; host or cells: unspecified cells; membrane preparation
T2 sequence (P08908 1-422): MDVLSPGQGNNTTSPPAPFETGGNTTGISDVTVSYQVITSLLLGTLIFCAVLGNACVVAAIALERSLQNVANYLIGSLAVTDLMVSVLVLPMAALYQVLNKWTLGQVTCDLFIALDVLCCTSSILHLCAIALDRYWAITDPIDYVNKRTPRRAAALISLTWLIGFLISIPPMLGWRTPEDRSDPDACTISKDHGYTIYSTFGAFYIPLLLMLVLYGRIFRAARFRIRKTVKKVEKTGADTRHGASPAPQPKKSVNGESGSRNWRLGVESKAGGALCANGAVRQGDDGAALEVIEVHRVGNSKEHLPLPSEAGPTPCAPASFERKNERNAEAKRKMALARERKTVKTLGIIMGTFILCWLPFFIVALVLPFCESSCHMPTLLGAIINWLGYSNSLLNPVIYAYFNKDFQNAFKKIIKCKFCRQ
Method: Measurement of the Efficacy of the Compounds of the Invention
The cells (Gibco Biocult. Laboratory, Paisley UK) are collected in phosphate buffer (pH=7.4) and centrifuged at 48 000 g for 20 minutes. The centrifugation pellet is homogenized in Hepes (20 mmol, pH=7.4) containing EDTA (10 mmol) and recentrifuged at 48 000×g for 10 minutes. The centrifugation pellet is washed twice in Hepes (10 mmol, pH=7.4) containing EDTA (0.1 mmol). The pellet is stored at −80° C. in portions of 600 to 750 μg of protein. […] The incubation medium contains 0.4 ml of membrane preparation and 0.05 ml of test compound. After incubation for 30 minutes at 25° C., 0.05 ml of [^35S]GTPγS (500 picomol), ([^35S]GTPγS (1100 Ci/mmol), Amersham, Les Ulis France), is added and the mixture incubated for 30 minutes. The reactions are quenched by addition of 3 ml of ice-cold Hepes (20 mmol) containing 3 mmol of MgCl2 and rapid filtration through Whatman GF/B filters. The tubes are rinsed 3 times with 5 ml of Hepes buffer at 25° C. The radioactivity collected on the filter is analyzed by liquid scintillation by adding 4 ml of scintillant liquid (Emulsifier Safe, Packard). […] All the experiments are performed in triplicate.

[3] = target: T3, 5-HT1A receptors (Rattus norvegicus, UniProt P19327); test: Affinity for the 5-HT1A receptors, displacement of [3H]8-OH-DPAT; type: binding; settings: for Selectivity 5-HT1A/D2: ratio of 5-HT1A to D2 affinity
T3 construct: For these experiments, rat cerebral cortices are used; from tissue; host or cells: rat cerebral cortex homogenate
T3 sequence (P19327 1-422): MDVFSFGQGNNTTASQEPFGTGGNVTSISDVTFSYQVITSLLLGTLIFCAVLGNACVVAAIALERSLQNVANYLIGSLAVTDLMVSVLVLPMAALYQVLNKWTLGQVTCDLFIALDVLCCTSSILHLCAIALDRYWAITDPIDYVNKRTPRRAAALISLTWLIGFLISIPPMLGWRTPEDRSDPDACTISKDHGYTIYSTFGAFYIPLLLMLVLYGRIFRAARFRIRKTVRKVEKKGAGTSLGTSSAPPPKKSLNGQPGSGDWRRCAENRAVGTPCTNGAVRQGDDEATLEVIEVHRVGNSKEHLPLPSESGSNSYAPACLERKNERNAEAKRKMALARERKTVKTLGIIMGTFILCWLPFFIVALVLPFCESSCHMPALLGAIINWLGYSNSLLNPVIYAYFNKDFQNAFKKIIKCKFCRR
Method: Measurement of the affinity of the compounds in the invention for the 5-HT1A receptors
For these experiments, rat cerebral cortices are used. After thawing the brain in Tris-HCl buffer (50 mmol, pH=7.4) at 25° C., the cerebral cortex is removed and homogenized in 20 volumes of buffer maintained at 4° C. The homogenate is centrifuged at 39 000×g for 10 minutes, and the centrifugation pellet is suspended in the same volume of buffer and recentrifuged. After resuspending under the same conditions, the homogenate is incubated for 10 minutes at 37° C. and then recentrifuged. The final pellet is suspended in cold Tris-HCl reaction buffer (50 mmol) at 25° C. containing […] of pargyline, 4 mmol of CaCl2 and 0.10% of ascorbic acid. The final concentration of tissue in the incubation medium is 10 mg/tube.
The nonspecific binding is defined by using […] of serotonin. The reaction tubes are incubated at 23° C. for 30 minutes and their content is then rapidly filtered under vacuum through Whatman GF/B filters, and the tubes are rinsed with twice 5 ml of tris-HCl buffer at 25° C. The radio-activity collected on the filter is analyzed by liquid scintillation, by adding 4 ml of scintillant liquid (Emulsifier Safe, Packard, Warrenville, USA). All the experiments are performed in triplicate.

[4] = [35S]GTPγS binding, maximum stimulation defined with serotonin (10 μmmol), read-out: % stimulation Maximum effect
[5] = read-out: 5-HT1A pKi (converted)

T1 sequence (P61169 whole entry): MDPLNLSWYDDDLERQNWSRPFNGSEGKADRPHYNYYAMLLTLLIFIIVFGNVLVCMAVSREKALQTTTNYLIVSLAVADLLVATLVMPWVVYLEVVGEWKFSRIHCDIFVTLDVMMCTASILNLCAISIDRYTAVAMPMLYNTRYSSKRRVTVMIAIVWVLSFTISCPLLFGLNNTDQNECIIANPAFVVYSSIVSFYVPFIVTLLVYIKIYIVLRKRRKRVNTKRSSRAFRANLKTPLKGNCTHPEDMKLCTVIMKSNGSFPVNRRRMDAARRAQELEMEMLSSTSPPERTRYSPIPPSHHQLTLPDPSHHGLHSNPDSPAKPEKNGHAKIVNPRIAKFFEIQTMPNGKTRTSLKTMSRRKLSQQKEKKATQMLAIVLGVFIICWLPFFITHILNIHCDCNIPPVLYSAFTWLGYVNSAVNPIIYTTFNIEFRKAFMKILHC

melting point: 205 °C (dec.)
SMILES: Cc1ccc(CNCC2(F)CCN(C(=O)c3ccc(F)c(Cl)c3)CC2)nn1 (as salt: hydrochloride) [Compound 1-7, (3-chloro-4-fluorophenyl)-(4-fluoro-4-{[(6-methylpyridazin-3-ylmethyl)amino]-methyl}piperidin-1-yl)methanone]

melting point: 170 to 172 °C
SMILES: N#Cc1ccc(CNCC2(F)CCN(C(=O)c3ccc(F)c(Cl)c3)CC2)nc1 (as salt: fumarate) [Compound 1-2, (3-chloro-4-fluorophenyl)-(4-fluoro-4-{[(5-cyanopyridin-2-ylmethyl)amino]methyl}-piperidin-1-yl)methanone]

melting point: 158 °C
SMILES: Cc1ccc(CNCC2(F)CCN(C(=O)c3ccc(F)c(F)c3)CC2)nc1 (as salt: fumarate) [Compound 1-11, (3,4-difluorophenyl)-(4-fluoro-4-{[(5-methylpyridin-2-ylmethyl)amino]methyl}piperidin-1-yl)methanone]

melting point: 172 °C
SMILES: Cc1ccc(CNCC2(F)CCN(C(=O)c3cccc(C(F)(F)F)c3)CC2)nc1 (as salt: hydrochloride) [Compound 1-14, (3-trifluoromethylphenyl)-(4-fluoro-4-{[(5-methylpyridin-2-ylmethyl)amino]methyl}piperidin-1-yl)methanone]

melting point: 190 °C (dec.)
SMILES: Cc1ccc(CNCC2(Cl)CCN(C(=O)c3ccc(F)c(Cl)c3)CC2)nc1 (as salt: hydrochloride) [Compound 1-9, (3-chloro-4-fluorophenyl)-(4-chloro-4-{[(5-methylpyridin-2-ylmethyl)amino]-methyl}piperidin-1-yl)methanone]

melting point: 161 °C
SMILES: Cc1cnc(CNCC2(F)CCN(C(=O)c3ccc(Cl)c(Cl)c3)CC2)nc1 (as salt: fumarate) [Compound 1-6, (3,4-dichlorophenyl)-(4-fluoro-4-{[(5-methylpyrimidin-2-ylmethyl)amino]-methyl}piperidin-1-yl)methanone]

SMILES: CCCN(CCC)C1CCc2cccc(O)c2C1 (stereo not drawn) [Compound 8-OH-DPAT, 8-hydroxy-2-di-n-propylaminotetralin, reference compound]
Ki ([1]; D2 pKi): 631 nM
Emax ([2]; read-out: % stimulation Maximum effect, [35S]GTPγS binding, maximum stimulation defined with serotonin (10 μmmol)): 41%

Ki ([1]; read-out: D2 pKi (converted)): > 10000 nM
Emax [2, 4]: 100%
Selectivity 5-HT1A/D2 [3]: >1000
Ki [3, 5]: 0.794 nM
SMILES: Cc1ccc(CNCC2(Cl)CCN(C(=O)c3ccc(F)c(Cl)c3)CC2)nc1 [Compound 1-9, (3-chloro-4-fluorophenyl)-(4-chloro-4-{[(5-methylpyridin-2-ylmethyl)amino]-methyl}piperidin-1-yl)methanone]

Ki ([1]; read-out: D2 pKi (converted)): > 10000 nM
Emax [2, 4]: 90%
Selectivity 5-HT1A/D2 [3]: >1000
Ki [3, 5]: 5.01 nM
SMILES: Cc1ccc(CNCC2(F)CCN(C(=O)c3ccc(F)c(Cl)c3)CC2)nn1 [Compound 1-7, (3-chloro-4-fluorophenyl)-(4-fluoro-4-{[(6-methylpyridazin-3-ylmethyl)amino]-methyl}piperidin-1-yl)methanone]

melting point: 160 to 162 °C
SMILES: O=C(c1ccc(F)c(Cl)c1)N1CCC(F)(CNCc2ccc(Cl)cn2)CC1 (as salt: fumarate) [Compound 1-3, (3-chloro-4-fluorophenyl)-(4-fluoro-4-{[(5-chloropyridin-2-ylmethyl)amino]methyl}piperidin-1-yl)methanone]

melting point: 225 to 227 °C
SMILES: O=C(c1ccc(F)c(Cl)c1)N1CCC(F)(CNCc2ccc(O)cn2)CC1 (as salt: fumarate) [Compound 1-1, (3-chloro-4-fluorophenyl)(4-fluoro-4-{[(5-hydroxypyridin-2-ylmethyl)amino]methyl}-piperidin-1-yl)methanone]

SMILES: CCCN(CCC)C1CCc2cccc(O)c2C1 (single isomer, unassigned; (+)) [(+)-8-OH-DPAT, reference compound]
Ki ([1]; D2 pKi): 794 nM
% stimulation Maximum effect ([2]; [35S]GTPγS binding, maximum stimulation defined with serotonin (10 μmmol)): 59%

melting point: 203 °C (dec.)
SMILES: Cc1ccc(CNCC2(F)CCN(C(=O)c3ccc(Cl)c(Cl)c3)CC2)nn1 (as salt: oxalate) [Compound 1-8, (3,4-dichlorophenyl)-(4-fluoro-4-{[(6-methylpyridazin-3-ylmethyl)amino]-methyl}piperidin-1-yl)methanone]

melting point: 175 °C
SMILES: Cc1ccc(CNCC2(F)CCN(C(=O)c3ccc(F)c(C#N)c3)CC2)nc1 (as salt: fumarate) [Compound 1-13, (3-cyano-4-fluorophenyl)-(4-fluoro-4-{[(5-methylpyridin-2-ylmethyl)amino]methyl}piperidin-1-yl)methanone]

SMILES: Cc1ccc(CNCC2(F)CCN(C(=O)c3ccc(F)c(Cl)c3)CC2)nc1 [Compound I-66, (3-chloro-4-fluorophenyl)(4-fluoro-4-{[(5-methylpyridin-2-ylmethyl)-amino]methyl}piperidin-1-yl)methanone, reference compound]
Emax [2, 4]: 75%
Ki [3]: 0.794 nM

melting point: 157 to 159 °C
SMILES: O=C(c1ccc(F)c(Cl)c1)N1CCC(F)(CNCc2ccc(CF)cn2)CC1 (as salt: fumarate) [Compound 1-4, (3-chloro-4-fluorophenyl)-(4-fluoro-4-{[(5-fluoromethylpyridin-2-ylmethyl)amino]-methyl}piperidin-1-yl)methanone]

melting point: 150 °C
SMILES: Cc1ccc(CNCC2(F)CCN(C(=O)c3ccc(Cl)c(F)c3)CC2)nc1 (as salt: fumarate) [Compound 1-12, (3-fluoro-4-chlorophenyl)-(4-fluoro-4-{[(5-methylpyridin-2-ylmethyl)amino]methyl}piperidin-1-yl)methanone]

Emax [2, 4]: 22%
SMILES: O=C1CC2(CCCC2)CC(=O)N1CCCCN1CCN(c2ncccn2)CC1 [buspirone]

Reference: patent US7547700B2, “Aryl-[4-halo-4(heteroarylmethylamino)-methyl]-piperidin-1-1yl]-methanone derivatives, methods for production and use thereof as medicaments” (PIERRE Fabre Medicament, priority 2002, dated 2009)
